pIC50, pKi: −log10 of the molar value. Read-outs that look alike come from different tables or passages of the source.
Assays:
[1] = test system: H929 multiple myeloma tumor line; experiment: In vitro cytotoxicity, MTT assay (Example B, Method A); type: cell-based; details: H929 cells, 48 hours exposure, read-out: C50
Method: The cytotoxicity studies were carried out on the H929 multiple myeloma tumor line.
The cells are distributed onto microplates and exposed to the test compounds for 48 hours. The cell viability is then quantified by a colorimetric assay, the Microculture Tetrazolium Assay (Carmichael et al, Cancer Res. 1987, 47, 939-942).
The results are expressed in C50 which means concentration corresponding to […] of effect/inhibition.

[2] = molecular target: Cy5-labelled Mcl1 (amino acids 171-321) C286S protein (UniProtKB Q07820) (Homo sapiens (Human), UniProt Q07820, C286S); experiment: Inhibition of Mcl-1 by the fluorescence quenching assay (Example A, Method B); type: binding
Cy5-labelled Mcl1 (amino acids 171-321) C286S protein, sequence (Q07820 171-321 C286S): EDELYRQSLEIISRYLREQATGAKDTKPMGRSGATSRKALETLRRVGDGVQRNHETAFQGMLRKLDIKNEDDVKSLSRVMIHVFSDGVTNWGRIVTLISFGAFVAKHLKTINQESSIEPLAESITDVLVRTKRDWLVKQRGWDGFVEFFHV
Method in brief: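 Eleven-point compound series incubated 2 h at room temperature with 1 nM Cy5-tagged protein and quencher-labelled PUMA peptide at 10, 20 or 400 nM in HEPES/NaCl/Tween 20, pH 7.4, 5% DMSO. IC50 for 50% fluorescence increase by 4-parameter fit, then Ki derived (complete cKi or estimated eKi).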

Mcl-1 protein = Mcl-1 protein (UniProtKB Q07820) (Homo sapiens (Human), UniProt Q07820); experiment: Inhibition of Mcl-1 by the fluorescence polarisation assay (Example A, Method A); type: binding; details: fluorescence polarization assay
Mcl-1 protein, sequence (Q07820 whole entry): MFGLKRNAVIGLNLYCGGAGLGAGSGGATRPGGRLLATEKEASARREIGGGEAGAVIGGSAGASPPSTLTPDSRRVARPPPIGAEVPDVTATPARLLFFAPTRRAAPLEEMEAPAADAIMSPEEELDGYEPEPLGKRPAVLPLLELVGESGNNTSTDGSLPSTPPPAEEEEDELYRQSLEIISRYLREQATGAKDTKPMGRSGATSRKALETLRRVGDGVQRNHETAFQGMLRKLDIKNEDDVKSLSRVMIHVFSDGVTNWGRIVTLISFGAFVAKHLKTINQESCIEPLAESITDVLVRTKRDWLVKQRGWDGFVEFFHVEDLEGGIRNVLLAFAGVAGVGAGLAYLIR
Method in brief: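 Protein (5 nM) and fluorescein-tagged peptide tracer (1 nM) incubated with 11-point compound series for 2 h at room temperature in HEPES/NaCl/Tween 20 buffer, pH 7.4, 5% DMSO. Displacement read as decrease in polarisation; IC50 fitted by 4-parameter logistic, converted to Ki (cKi or eKi).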

pKi [2] | pKi (Mcl-1 protein) | SMILES | pIC50 ([1]; Homo sapiens, NCI-H929, 48 h) | pIC50 [1]
8.26 | – | CC1CCc2c(OC[C@H](C)C[C@H]3Cc4ccccc4[C@]34CC[C@@](Nc3cccc(Cl)c3)(C(=O)O)CC4)ccnc2C1 (stereo partly drawn) [Example 650, (1r,2′S,4S)-4-(3-chloroanilino)-2′-{(2R)-2-methyl-3-[(7-methyl-5,6,7,8-tetrahydroquinolin-4-yl)oxy]propyl}-2′,3′-dihydrospiro[cyclohexane-1,1′-indene]-4-carboxylic acid] | 6.04 | –
8.91 | – | C[C@@H](COc1ccnc2c1[C@H](C)CCC2)CC1Cc2c(F)cccc2[C@]12CC[C@@](Nc1cccc(Cl)c1)(C(=O)O)CC2 (single isomer, unassigned) [Example 742] | 7.22 | –
8.67 | – | CC(O)c1ccc2c(c1)[C@]1(CC[C@@](Nc3cccc(Cl)c3)(C(=O)O)CC1)[C@H](C[C@@H](C)COc1ccnc3ccsc13)C2 (stereo partly drawn) [Example 721, (1r,2′R,4R)-4-(3-chloroanilino)-6′-(1-hydroxyethyl)-2′-{(2R)-2-methyl-3-[(thieno[3,2-b]pyridin-7-yl)oxy]propyl}-2′,3′-dihydrospiro[cyclohexane-1,1′-indene]-4-carboxylic acid] | 6.17 | –
7.16 | – | C[C@@H](COc1c[nH]c2ccccc12)C[C@H]1Cc2ccccc2[C@]12CC[C@@](Nc1cccc(Cl)c1)(C(=O)O)CC2 [Example 628, (1r,2′S,4S)-4-(3-chloroanilino)-2′-{(2R)-3-[(1H-indol-3-yl)oxy]-2-methylpropyl}-2′,3′-dihydrospiro[cyclohexane-1,1′-indene]-4-carboxylic acid] | 5.62 | –
– | 7.30 | O=C(O)[C@]1(Nc2cccc(Cl)c2)CC[C@@]2(CC1)c1ccccc1CC2CCCOc1ccnc2c1CCCC2 (stereo partly shown) [Example 451, (1r,4r)-4-(3-chloroanilino)-2′-{3-[(5,6,7,8-tetrahydroquinolin-4-yl)oxy]propyl}-2′,3′-dihydrospiro[cyclohexane-1,1′-indene]-4-carboxylic acid] | 5.46 | –
– | 5.14 | O=C(O)[C@]1(Nc2cccc(Cl)c2)CC[C@@]2(CC1)c1ccccc1C[C@@H]2C[C@@H](COc1ccccc1)c1ccccc1 [Example 556, (1r,2′S,4S)-4-(3-chloroanilino)-2′-[(2R)-3-phenoxy-2-phenylpropyl]-2′,3′-dihydrospiro[cyclohexane-1,1′-indene]-4-carboxylic acid] | 4.71 | –
– | 6.74 | C[C@@H]1Cc2ccccc2[C@]12CC[C@@](Nc1cccc(Br)c1)(C(=O)O)CC2 [Example 144, (1r,2′R,4R)-4-(3-bromoanilino)-2′-methyl-2′,3′-dihydrospiro[cyclohexane-1,1′-indene]-4-carboxylic acid] | 4.52 | –
– | 6.11 | CC(C)C(COc1ccncc1)CC1Cc2ccccc2[C@]12CC[C@@](Nc1cccc(Cl)c1)(C(=O)O)CC2 (single isomer, unassigned) [Example 533, (1r,4r)-4-(3-chloroanilino)-2′-(3-methyl-2-{[(pyridin-4-yl)oxy]methyl}butyl)-2′,3′-dihydrospiro[cyclohexane-1,1′-indene]-4-carboxylic acid] | – | 4.84
– | 5.48 | CC(C)C(COc1cccnc1)CC1Cc2ccccc2[C@]12CC[C@@](Nc1cccc(Cl)c1)(C(=O)O)CC2 (single isomer, unassigned) [Example 528, (1r,4r)-4-(3-chloroanilino)-2′-(3-methyl-2-{[(pyridin-3-yl)oxy]methyl}butyl)-2′,3′-dihydrospiro[cyclohexane-1,1′-indene]-4-carboxylic acid] | – | 4.52
– | 6.22 | O=C(O)[C@]1(Nc2cccc(Cl)c2)CC[C@@]2(CC1)c1ccccc1C[C@@H]2C[C@H](COc1cccnc1)c1ccccc1 [Example 551, (1r,2′S,4S)-4-(3-chloroanilino)-2′-{(2S)-2-phenyl-3-[(pyridin-3-yl)oxy]propyl}-2′,3′-dihydrospiro[cyclohexane-1,1′-indene]-4-carboxylic acid] | 4.80 | –
– | 6.24 | CC[C@H](COc1ccnc2ccsc12)C[C@H]1Cc2ccccc2[C@]12CC[C@@](Nc1cccc(Cl)c1)(C(=O)O)CC2 [Example 537, (1r,2′S,4S)-4-(3-chloroanilino)-2′-[(2S)-2-{[(thieno[3,2-b]pyridin-7-yl)oxy]methyl}butyl]-2′,3′-dihydrospiro[cyclohexane-1,1′-indene]-4-carboxylic acid] | 4.80 | –
– | 5.05 | CC(C)C(COc1cccnc1)CC1Cc2ccccc2[C@]12CC[C@@](Nc1cccc(Cl)c1)(C(=O)O)CC2 (single isomer, unassigned) [Example 527, (1r,4r)-4-(3-chloroanilino)-2′-(3-methyl-2-{[(pyridin-3-yl)oxy]methyl}butyl)-2′,3′-dihydrospiro[cyclohexane-1,1′-indene]-4-carboxylic acid] | – | 4.79
– | 7.16 | O=C(O)[C@]1(Nc2cccc(Cl)c2)CC[C@@]2(CC1)c1ccccc1C[C@H]2CCCOc1ccnc2ccsc12 [Example 439, (1r,2′R,4R)-4-(3-chloroanilino)-2′-{3-[(thieno[3,2-b]pyridin-7-yl)oxy]propyl}-2′,3′-dihydrospiro[cyclohexane-1,1′-indene]-4-carboxylic acid] | 5.41 | –
– | 5.79 | O=C(O)[C@]1(Nc2cccc(Cl)c2)CC[C@@]2(CC1)c1ccccc1C[C@H]2C[C@H](COc1ccnc2ccsc12)c1ccccc1 [Example 546, (1r,2′R,4R)-4-(3-chloroanilino)-2′-{(2S)-2-phenyl-3-[(thieno[3,2-b]pyridin-7-yl)oxy]propyl}-2′,3′-dihydrospiro[cyclohexane-1,1′-indene]-4-carboxylic acid] | 4.52 | –
– | 7.28 | C[C@@H](COc1ccncc1)C[C@H]1Cc2ccccc2[C@]12CC[C@@](Nc1cccc(Cl)c1)(C(=O)O)CC2 [Example 582, (1r,2′S,4S)-4-(3-chloroanilino)-2′-{(2R)-2-methyl-3-[(pyridin-4-yl)oxy]propyl}-2′,3′-dihydrospiro[cyclohexane-1,1′-indene]-4-carboxylic acid] | 5.59 | –
– | 7.03 | C[C@@H](COc1ccncc1C1CC1(C)C)C[C@H]1Cc2ccccc2[C@]12CC[C@@](Nc1cccc(Cl)c1)(C(=O)O)CC2 (stereo partly drawn) [Example 580, (1r,2′S,4S)-4-(3-chloroanilino)-2′-[(2R)-3-{[3-(2,2-dimethylcyclopropyl)pyridin-4-yl]oxy}-2-methylpropyl]-2′,3′-dihydrospiro[cyclohexane-1,1′-indene]-4-carboxylic acid] | 5.29 | –
– | 7.21 | O=C(O)[C@]1(Nc2cccc(Cl)c2)CC[C@@]2(CC1)c1ccccc1C[C@H]2c1ccc(Oc2ccccc2)cc1 [Example 358, (1r,2′S,4S)-4-(3-chloroanilino)-2′-(4-phenoxyphenyl)-2′,3′-dihydrospiro[cyclohexane-1,1′-indene]-4-carboxylic acid] | 5.13 | –
– | 6.79 | CCOc1ccc2c(c1)[C@]1(CC[C@@](Nc3cccc(Cl)c3)(C(=O)O)CC1)C(c1cccc(Oc3ccccc3)c1)C2 (single isomer, unassigned) [Example 386, (1r,4r)-4-(3-chloroanilino)-6′-ethoxy-2′-(3-phenoxyphenyl)-2′,3′-dihydrospiro[cyclohexane-1,18′-indene]-4-carboxylic acid] | 5.10 | –
– | 7.23 | O=C(O)[C@]1(Nc2cccc(Cl)c2)CC[C@@]2(CC1)c1ccccc1CC2CCCOc1ccncc1C(F)(F)F (stereo partly shown) [Example 463, (1r,4r)-4-(3-chloroanilino)-2′-(3-{[3-(trifluoromethyl)pyridin-4-yl]oxy}propyl)-2′,3′-dihydrospiro[cyclohexane-1,1′-indene]-4-carboxylic acid] | 5.08 | –
– | 6.65 | O=C(O)[C@]1(Nc2cccc(Cl)c2)CC[C@@]2(CC1)c1ccccc1CC2CCCOc1ccnc(F)c1 (mixture of isomers) [Example 427, (1r,4r)-4-(3-chloroanilino)-2′-{3-[(2-fluoropyridin-4-yl)oxy]propyl}-2′,3′-dihydrospiro[cyclohexane-1,1′-indene]-4-carboxylic acid] | 4.76 | –
– | 6.32 | O=C(O)[C@]1(Nc2cccc(Cl)c2)CC[C@@]2(CC1)c1ccccc1C[C@H]2c1cccc(OCc2ccccc2)c1 [Example 332, (1r,2′S,4S)-2′-[3-(benzyloxy)phenyl]-4-(3-chloroanilino)-2′,3′-dihydrospiro[cyclohexane-1,1′-indene]-4-carboxylic acid] | 4.79 | –
– | 7.52 | C[C@@H](COc1ccnc2sccc12)C[C@H]1Cc2ccccc2[C@]12CC[C@@](Nc1cccc(Cl)c1)(C(=O)O)CC2 [Example 604, (1r,2′S,4S)-4-(3-chloroanilino)-2′-{(2R)-2-methyl-3-[(thieno[2,3-b]pyridin-4-yl)oxy]propyl}-2′,3′-dihydrospiro[cyclohexane-1,1′-indene]-4-carboxylic acid] | 6.16 | –
– | 6.76 | Cc1c[nH]c2cccc(OCCC[C@@H]3Cc4ccccc4[C@]34CC[C@@](Nc3cccc(Cl)c3)(C(=O)O)CC4)c12 [Example 483, (1r,2′R,4R)-4-(3-chloroanilino)-2′-{3-[(3-methyl-1H-indol-4-yl)oxy]propyl}-2′,3′-dihydrospiro[cyclohexane-1,1′-indene]-4-carboxylic acid] | 5.38 | –
